Among the data in PubChem BioAssay (NCI) are GI50 and TGI values, retold here.

Some test systems named below: IGROV1 ovarian; SW-620 colon; HS 578T breast; RXF 393 renal; HCT-116 colon; DU-145 prostate; T-47D breast; SNB-19 CNS.
Common to all, as to test: inhibition of tumour cell growth, NCI panel, 48 h

Each structure is given as a SMILES string. “And” between values parts separate entries of the source, which are not always exact repeats. Identical values can stand only once.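 Test compounds were applied to cells in 96-well plates for 48 hours at 5 doses. At the GI50, growth is halved. TGI: concentration producing complete growth inhibition.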

On to `COc1ccc(OC)c(/C=C/c2nc(=S)n(-c3ccc(Cl)cc3)[nH]2)c1`, for which the GI50 in the experiment on IGROV1 ovarian was 4.38 µM; in the experiment on SW-620 colon, 5.09 µM; in the experiment on HS 578T breast, 3.1 µM; in the experiment on RXF 393 renal, 3.38 µM; in the experiment on HCT-116 colon, 4.05 µM; in the experiment on DU-145 prostate, 19.1 µM. For the same compound, the GI50 is 4.51 µM in the experiment with T-47D breast and 12.7 µM in the experiment on SNB-19 CNS. The TGI is above 100 µM with IGROV1 ovarian; above 100 µM in the experiment on SW-620 colon; above 100 µM in the experiment on HS 578T breast; 38.7 µM with RXF 393 renal; above 100 µM with HCT-116 colon; above 100 µM in the experiment with DU-145 prostate. Moreover, the TGI with T-47D breast and with SNB-19 CNS was above 100 µM throughout.

For `Nc1ncnc2c1N=C(c1ccc3c(c1)OCO3)CC(c1ccc(Cl)cc1)N2` (stereo unspecified), the GI50 in the experiment on IGROV1 ovarian was 0.351 µM; in the experiment on SW-620 colon, 4.91 µM; in the experiment with HS 578T breast, 1.07 µM; in the experiment with RXF 393 renal it was 2.51 µM; in the experiment on HCT-116 colon it was 10.7 µM; with DU-145 prostate it was 16.8 µM. In addition, the results for the GI50 in the experiment with T-47D breast and in the experiment with SNB-19 CNS were 20.9 µM and above 100 µM, respectively. The TGI in the experiment on IGROV1 ovarian was 3.76 µM; with SW-620 colon, above 100 µM; with HS 578T breast, 7.09 µM; in the experiment on RXF 393 renal, 13.5 µM; in the experiment on HCT-116 colon it was 22.5 µM; in the experiment on DU-145 prostate, 33.3 µM. For the same compound, the TGI with T-47D breast and in the experiment on SNB-19 CNS was above 100 µM throughout.

Take `c1ccc(-c2[nH]ncc2-c2ccnc(-c3ccc(OCCn4ccnc4)cc3)c2)nc1`: the GI50 with IGROV1 ovarian, in the experiment with SW-620 colon, with HS 578T breast, with RXF 393 renal, in the experiment on HCT-116 colon and with DU-145 prostate was above 25 µM in each case. Besides, the GI50 was 5.68 µM in the experiment with T-47D breast and above 25 µM with SNB-19 CNS. The TGI in the experiment on IGROV1 ovarian, in the experiment with SW-620 colon, in the experiment on HS 578T breast, with RXF 393 renal, in the experiment with HCT-116 colon and in the experiment on DU-145 prostate was above 25 µM each time. Also, the TGI with T-47D breast and in the experiment with SNB-19 CNS was above 25 µM each time.

As for `Cc1ccc(O)cc1Nc1ccnc2ccc(S(C)(=O)=O)cc12`, the GI50 is 0.478 µM in the experiment on IGROV1 ovarian; 15.2 µM in the experiment with SW-620 colon; 0.42 µM with HS 578T breast; 0.381 µM with RXF 393 renal; 3.53 µM with HCT-116 colon; 7.23 µM with DU-145 prostate. Further, the results for the GI50 in the experiment on T-47D breast and in the experiment on SNB-19 CNS were 1.59 µM and 7.66 µM, respectively. In addition, the TGI with IGROV1 ovarian was 2.12 µM; in the experiment with SW-620 colon, above 25 µM; in the experiment with HS 578T breast it was 4.25 µM; in the experiment on RXF 393 renal, 1.99 µM; in the experiment on HCT-116 colon it was above 25 µM; in the experiment with DU-145 prostate, above 20.4 µM. In addition, the TGI in the experiment with T-47D breast was 24.3 µM; with SNB-19 CNS, above 25 µM.

Turning to `Cc1c(C(=N)C(C#N)C#N)c(=N)oc2c1ccc1ccccc12`, the GI50 in the experiment on IGROV1 ovarian was 7.76 µM; in the experiment on SW-620 colon, 18.4 µM; in the experiment with HS 578T breast it was 10.5 µM; in the experiment on RXF 393 renal, 2.76 µM; in the experiment with HCT-116 colon, 17.6 µM; with DU-145 prostate it was 25.3 µM. Besides, the figures for the GI50 in the experiment on T-47D breast and with SNB-19 CNS were 10.1 µM and 30.5 µM, respectively. Besides, the TGI in the experiment on IGROV1 ovarian is 53.4 µM; in the experiment with SW-620 colon, 56.1 µM; in the experiment with HS 578T breast, 66.2 µM; with RXF 393 renal it was 15.4 µM; in the experiment with HCT-116 colon, above 100 µM; with DU-145 prostate, above 100 µM. The TGI in the experiment on T-47D breast and in the experiment with SNB-19 CNS was above 100 µM in each case.

For `CCN(C)c1nc(N(C)CC)c2nc(N(C)CC)nc(N(C)CC)c2n1`, the TGI with IGROV1 ovarian, in the experiment with SW-620 colon, in the experiment with HS 578T breast, with RXF 393 renal, in the experiment on HCT-116 colon and in the experiment with DU-145 prostate was above 100 µM throughout. Also, the TGI in the experiment on T-47D breast and in the experiment on SNB-19 CNS was above 100 µM each time.

With `O=C1/C(=C/c2ccc(Cl)c(Cl)c2)CN(C(=O)CCN2CCC(=NO)CC2)C/C1=C\c1ccc(Cl)c(Cl)c1`, the GI50 in the experiment on IGROV1 ovarian is 0.534 µM; with SW-620 colon, 0.247 µM; with HS 578T breast, 1.43 µM; with RXF 393 renal, 1.13 µM; with HCT-116 colon, 0.267 µM; in the experiment on DU-145 prostate, 1.21 µM. In addition, the values for the GI50 in the experiment with T-47D breast and in the experiment with SNB-19 CNS were 1.1 µM and 0.599 µM, respectively. Moreover, the TGI in the experiment with IGROV1 ovarian stood at 1.41 µM; in the experiment with SW-620 colon, 0.708 µM; in the experiment with HS 578T breast it was 5.68 µM; with RXF 393 renal, 2.59 µM; in the experiment with HCT-116 colon it was 0.778 µM; with DU-145 prostate it was 2.73 µM. Further, the TGI in the experiment with T-47D breast was 3.59 µM; in the experiment with SNB-19 CNS it was 1.8 µM.

As to `O=C(Nc1ccc(N=C=S)cc1Cl)c1cc(Br)cc(Br)c1O`, the TGI with IGROV1 ovarian is 39.8 µM; in the experiment on SW-620 colon it was 72.3 µM; in the experiment with HS 578T breast, 69.4 µM; in the experiment on RXF 393 renal, above 100 µM; with HCT-116 colon, 31.7 µM; in the experiment on DU-145 prostate, 39.4 µM. Also, the figures for the TGI with T-47D breast and in the experiment on SNB-19 CNS were above 100 µM and 64.3 µM, respectively.

Turning to `CC(Br)C(=O)NC(CO)C(=O)O` (stereo unspecified), the TGI in the experiment on IGROV1 ovarian, in the experiment with SW-620 colon, in the experiment on HS 578T breast, with RXF 393 renal, in the experiment on HCT-116 colon and in the experiment with DU-145 prostate was above 100 µM in each case. Besides, the TGI in the experiment on T-47D breast and with SNB-19 CNS was above 100 µM throughout.

With `Cc1nn(-c2ccc(Cl)cc2)c2ncnc(N/N=C/c3ccccc3O)c12`, the GI50 was 0.534 µM and 0.485 µM in the experiment on IGROV1 ovarian; 1.35 µM and 0.505 µM with SW-620 colon; 4.12 µM and 2.12 µM with HS 578T breast; 1.97 µM and 0.683 µM in the experiment with RXF 393 renal; 0.373 µM and 0.701 µM in the experiment on HCT-116 colon; 0.488 µM and 0.472 µM in the experiment with DU-145 prostate. Further, the GI50 in the experiment on T-47D breast was 2.09 µM and 0.89 µM; in the experiment on SNB-19 CNS it was 1.08 µM and 0.604 µM. Further, the TGI with IGROV1 ovarian is 10.5 µM and 8.48 µM; with SW-620 colon, above 100 µM; in the experiment on HS 578T breast it was above 88.1 µM; in the experiment with RXF 393 renal it was 21.7 µM and 11.3 µM; in the experiment on HCT-116 colon it was 20.7 µM and > 43.3 µM; in the experiment with DU-145 prostate, 16.4 µM and > 100 µM. The TGI with T-47D breast was > 100 µM and 23.5 µM; in the experiment on SNB-19 CNS it was above 80.4 µM.
